Results reported in PubChem BioAssay AID624376 (Broad Institute, 2012).
Inconclusive results are not listed. Calls of active or inactive are those of the source. How the calls were made is not given here.

Assay: inhibitors of EBV LMP1 NF-kappaB signaling – cell-based, luciferase reporter, luminescence, dry powder, set 2, dose response (AID 624376)
Settings: LMP1-induced NF-kappaB luciferase reporter cells, luminescence; at 16 µM (top of the series)
With `Cc1noc(C)c1S(=O)(=O)Nc1ccc2c(c1)C(=O)N([C@H](C)CO)C[C@H](C)[C@H](CN(C)Cc1ccc(C(F)(F)F)cc1)OCCCC[C@H](C)O2` the activity change, negative = inhibition was -0.443% (inactive).

Same assay, conditions: LMP1-induced NF-kappaB luciferase reporter cells, luminescence; at 30 µM (top of the series)
For `C[C@H](NC(=O)C[C@@H]1C=C[C@H](NC(=O)Cc2ccccn2)[C@H](CO)O1)c1ccccc1`, the activity change, negative = inhibition was -8.89% (inactive).

Same assay, conditions: LMP1-induced NF-kappaB luciferase reporter cells, luminescence; at 35 µM (top of the series)
In the case of `COC(=O)C[C@H]1C[C@H]2c3cc(NC(=O)CN(C)C)ccc3O[C@H]2[C@H](CO)O1`, the activity change, negative = inhibition was -9.49% (inactive). With `C[C@H](NC(=O)C[C@H]1C=C[C@@H](NC(=O)Cc2ccccn2)[C@H](CO)O1)c1ccccc1` the activity change, negative = inhibition was 0.463% (inactive). In the case of `C[C@@H]1CN([C@@H](C)CO)C(=O)Cc2cc(NC(=O)Cc3ccccc3)ccc2O[C@@H]1CN(C)Cc1ccc(C(F)(F)F)cc1`, the activity change, negative = inhibition was 5.83% (inactive). With `O=C(C[C@@H]1C[C@@H]2c3cc(NS(=O)(=O)c4ccc(F)cc4)ccc3O[C@@H]2[C@H](CO)O1)NC1CCCCC1` the activity change, negative = inhibition was 7.3% (inactive). With `COc1cccc(S(=O)(=O)N(C)C[C@H]2Oc3cc(C4=CCCCC4)ccc3S(=O)(=O)N([C@H](C)CO)C[C@H]2C)c1` the activity change, negative = inhibition was -4.73% (inactive). With `Cc1noc(C)c1S(=O)(=O)Nc1ccc2c(c1)C(=O)N([C@H](C)CO)C[C@H](C)[C@H](CN(C)Cc1ccc(C(F)(F)F)cc1)OCCCC[C@@H](C)O2` the activity change, negative = inhibition was 16.1% (inactive). With `Cc1noc(C)c1S(=O)(=O)Nc1ccc2c(c1)C(=O)N([C@@H](C)CO)C[C@@H](C)[C@@H](CN(C)Cc1ccc(C(F)(F)F)cc1)OCCCC[C@@H](C)O2` the activity change, negative = inhibition was -7.77% (inactive). In the case of `C[C@@H](NC(=O)C[C@H]1C[C@@H]2c3cc(NC(=O)c4cccnc4)ccc3O[C@@H]2[C@@H](CO)O1)c1ccccc1`, the activity change, negative = inhibition was 6.76% (inactive). With `O=C(C[C@H]1C[C@@H]2c3cc(NS(=O)(=O)c4ccc(F)cc4)ccc3O[C@@H]2[C@H](CO)O1)NC1CCCCC1` the activity change, negative = inhibition was -0.993% (inactive). In the case of `CO[C@@H]1CN(C)C(=O)c2ccc(NC(C)=O)cc2OC[C@@H](C)N(Cc2ccccc2F)C[C@H]1C`, the activity change, negative = inhibition was 0.725% (inactive). For `C[C@H](NC(=O)C[C@H]1C=C[C@@H](NC(=O)Cc2ccccn2)[C@@H](CO)O1)c1ccccc1`, the activity change, negative = inhibition was -0.671% (inactive). For `C[C@@H](NC(=O)C[C@H]1C=C[C@H](NC(=O)Cc2ccccn2)[C@@H](CO)O1)c1ccccc1`, the activity change, negative = inhibition was 2.05% (inactive). For `Cc1noc(C)c1S(=O)(=O)Nc1ccc2c(c1)C(=O)N([C@@H](C)CO)C[C@H](C)[C@@H](CN(C)Cc1ccc(C(F)(F)F)cc1)OCCCC[C@H](C)O2`, the activity change, negative = inhibition was -1.9% (inactive). For `C[C@@H](NC(=O)C[C@@H]1C=C[C@H](NC(=O)Cc2ccccn2)[C@@H](CO)O1)c1ccccc1`, the activity change, negative = inhibition was -7.31% (inactive). In the case of `C[C@H](NC(=O)C[C@H]1C=C[C@H](NC(=O)Cc2ccccn2)[C@H](CO)O1)c1ccccc1`, the activity change, negative = inhibition was 3.9% (inactive). For `Cc1noc(C)c1S(=O)(=O)Nc1ccc2c(c1)C(=O)N([C@H](C)CO)C[C@H](C)[C@@H](CN(C)Cc1ccc(C(F)(F)F)cc1)OCCCC[C@@H](C)O2`, the activity change, negative = inhibition was -11.7% (inactive). For `COc1ccccc1CNC(=O)C[C@H]1C[C@@H]2c3cc(NC(=O)CN(C)C)ccc3O[C@@H]2[C@@H](CO)O1`, the activity change, negative = inhibition was -6.3% (inactive). With `Cc1noc(C)c1S(=O)(=O)Nc1ccc2c(c1)C(=O)N([C@@H](C)CO)C[C@H](C)[C@H](CN(C)Cc1ccc(C(F)(F)F)cc1)OCCCC[C@H](C)O2` the activity change, negative = inhibition was -10.2% (inactive). In the case of `O=C(Cc1ccccn1)NCC[C@@H]1CC[C@H](NC(=O)Nc2ccc(Cl)cc2)[C@H](CO)O1`, the activity change, negative = inhibition was -9.97% (inactive). In the case of `C[C@H](NC(=O)C[C@@H]1C=C[C@H](NC(=O)Cc2ccccn2)[C@@H](CO)O1)c1ccccc1`, the activity change, negative = inhibition was 5.95% (inactive). In the case of `C[C@@H](NC(=O)C[C@@H]1C=C[C@@H](NC(=O)Cc2ccccn2)[C@H](CO)O1)c1ccccc1`, the activity change, negative = inhibition was -0.374% (inactive). With `CO[C@H]1CN(C)C(=O)c2ccc(NC(=O)C3CC3)cc2OC[C@H](C)N(C(=O)c2ccccn2)C[C@H]1C` the activity change, negative = inhibition was -14.8% (inactive). With `O=C(Cc1ccccn1)NCC[C@H]1CC[C@@H](NC(=O)Nc2ccc(Cl)cc2)[C@H](CO)O1` the activity change, negative = inhibition was -2.95% (inactive). In the case of `COc1cccc(S(=O)(=O)N(C)C[C@@H]2Oc3cc(C4=CCCCC4)ccc3S(=O)(=O)N([C@@H](C)CO)C[C@H]2C)c1`, the activity change, negative = inhibition was 4.81% (inactive). In the case of `O=C(C[C@@H]1C[C@@H]2c3cc(NC(=O)c4cccnc4)ccc3O[C@@H]2[C@H](CO)O1)NCC(F)(F)F`, the activity change, negative = inhibition was -8.21% (inactive). For `C[C@H]1CN([C@@H](C)CO)C(=O)c2c(c3ccccc3n2C)-c2ccccc2CO[C@H]1CN(C)C(=O)Nc1ccc(F)cc1`, the activity change, negative = inhibition was 1.49% (inactive). In the case of `C[C@H](CO)N1C[C@H](C)[C@@H](CN(C)Cc2ccc(C(F)(F)F)cc2)Oc2ccc(NC(=O)Cc3ccccc3)cc2CC1=O`, the activity change, negative = inhibition was 17.6% (inactive). With `C[C@H](NC(=O)C[C@@H]1C=C[C@@H](NC(=O)Cc2ccccn2)[C@H](CO)O1)c1ccccc1` the activity change, negative = inhibition was 4.21% (inactive). With `C[C@H]1CN([C@@H](C)CO)C(=O)Cc2cc(NC(=O)Cc3ccccc3)ccc2O[C@@H]1CN(C)Cc1ccc(C(F)(F)F)cc1` the activity change, negative = inhibition was -3.24% (inactive). With `C[C@@H]1CN([C@H](C)CO)C(=O)Cc2cc(NC(=O)Cc3ccccc3)ccc2O[C@H]1CN(C)Cc1ccc(C(F)(F)F)cc1` the activity change, negative = inhibition was -5.26% (inactive). With `CN(C)c1ccc2c(c1)[C@@H]1C[C@@H](CC(=O)NCc3ccc(Oc4ccccc4)cc3)O[C@@H](CO)[C@@H]1O2` the activity change, negative = inhibition was -26.2% (inactive). In the case of `COC(=O)C[C@@H]1C[C@@H]2c3cc(NC(=O)CN(C)C)ccc3O[C@@H]2[C@@H](CO)O1`, the activity change, negative = inhibition was -4.49% (inactive). In the case of `C[C@@H]1CN([C@H](C)CO)C(=O)c2c(c3ccccc3n2C)-c2ccccc2CO[C@@H]1CN(C)C(=O)Nc1ccc(F)cc1`, the activity change, negative = inhibition was 3.49% (inactive). For `Cc1noc(C)c1S(=O)(=O)Nc1ccc2c(c1)C(=O)N([C@H](C)CO)C[C@@H](C)[C@@H](CN(C)Cc1ccc(C(F)(F)F)cc1)OCCCC[C@@H](C)O2`, the activity change, negative = inhibition was -6.08% (inactive). For `O=C(Cc1ccccn1)NCC[C@H]1CC[C@@H](NC(=O)Nc2ccc(Cl)cc2)[C@@H](CO)O1`, the activity change, negative = inhibition was 0.728% (inactive). With `CS(=O)(=O)Nc1ccc2c(c1)[C@H]1C[C@@H](CC(=O)NCC3CC3)O[C@@H](CO)[C@H]1O2` the activity change, negative = inhibition was 5.22% (inactive). In the case of `C[C@H](CO)N1C[C@H](C)[C@H](CN(C)Cc2ccc(C(F)(F)F)cc2)Oc2ccc(NC(=O)Cc3ccccc3)cc2CC1=O`, the activity change, negative = inhibition was 3.81% (inactive). With `O=C(Cc1ccccn1)NCC[C@@H]1CC[C@@H](NC(=O)Nc2ccc(Cl)cc2)[C@@H](CO)O1` the activity change, negative = inhibition was -0.581% (inactive). With `Cc1noc(C)c1S(=O)(=O)Nc1ccc2c(c1)C(=O)N([C@H](C)CO)C[C@@H](C)[C@@H](CN(C)Cc1ccc(C(F)(F)F)cc1)OCCCC[C@H](C)O2` the activity change, negative = inhibition was 16.2% (inactive). For `C[C@@H](NC(=O)C[C@H]1C=C[C@@H](NC(=O)Cc2ccccn2)[C@@H](CO)O1)c1ccccc1`, the activity change, negative = inhibition was -14% (inactive). In the case of `C[C@H](NC(=O)C[C@@H]1C=C[C@@H](NC(=O)Cc2ccccn2)[C@@H](CO)O1)c1ccccc1`, the activity change, negative = inhibition was 2.64% (inactive).
